Reference: the supplement of paper PMC11451515

Test system: P12-Ichikawa
Assay: cell viability relative to DMSO control; higher = less cytotoxic
Details: 48 h
How it was run: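 NOMO1 or SEM cells were plated at 500 cells/well and P12-Ichikawa cells at 1000 cells/well in 1536-well plates (5 μl), after each leukemia line had been adapted for at least four passages in each medium. Pin dosing delivered library compounds in DMSO at 11 threefold concentrations, 47 μM to 0.79 nM. CellTiter-Glo One luminescence was read after 48 h at 37°C. Viability is reported as a per-plate percentage of DMSO wells, with cell-free wells as background.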

[1] = HPLM + 10% dialyzed FBS, 0.000781 µM
[2] = HPLM + 10% dialyzed FBS, 0.00234 µM
[3] = HPLM + 10% dialyzed FBS, 0.00702 µM
[4] = HPLM + 10% dialyzed FBS, 0.0211 µM
[5] = HPLM + 10% dialyzed FBS, 0.0632 µM
[6] = HPLM + 10% dialyzed FBS, 0.19 µM
[7] = HPLM + 10% dialyzed FBS, 0.569 µM
[8] = HPLM + 10% dialyzed FBS, 1.71 µM
[9] = HPLM + 10% dialyzed FBS, 5.12 µM
[10] = HPLM + 10% dialyzed FBS, 15.4 µM
[11] = HPLM + 10% dialyzed FBS, 46.1 µM
[12] = RPMI 5 mM glucose + 10% FBS, 0.000781 µM
[13] = RPMI 5 mM glucose + 10% FBS, 0.00234 µM
[14] = RPMI 5 mM glucose + 10% FBS, 0.00702 µM
[15] = RPMI 5 mM glucose + 10% FBS, 0.0211 µM
[16] = RPMI 5 mM glucose + 10% FBS, 0.0632 µM
[17] = RPMI 5 mM glucose + 10% FBS, 0.19 µM
[18] = RPMI 5 mM glucose + 10% FBS, 0.569 µM
[19] = RPMI 5 mM glucose + 10% FBS, 1.71 µM
[20] = RPMI 5 mM glucose + 10% FBS, 5.12 µM
[21] = RPMI 5 mM glucose + 10% FBS, 15.4 µM
[22] = RPMI 5 mM glucose + 10% FBS, 46.1 µM
[23] = RPMI 5 mM glucose + 10% dialyzed FBS, 0.000781 µM
[24] = RPMI 5 mM glucose + 10% dialyzed FBS, 0.00234 µM
[25] = RPMI 5 mM glucose + 10% dialyzed FBS, 0.00702 µM
[26] = RPMI 5 mM glucose + 10% dialyzed FBS, 0.0211 µM
[27] = RPMI 5 mM glucose + 10% dialyzed FBS, 0.0632 µM
[28] = RPMI 5 mM glucose + 10% dialyzed FBS, 0.19 µM
[29] = RPMI 5 mM glucose + 10% dialyzed FBS, 0.569 µM
[30] = RPMI 5 mM glucose + 10% dialyzed FBS, 1.71 µM
[31] = RPMI 5 mM glucose + 10% dialyzed FBS, 5.12 µM
[32] = RPMI 5 mM glucose + 10% dialyzed FBS, 15.4 µM
[33] = RPMI 5 mM glucose + 10% dialyzed FBS, 46.1 µM

Row | Compound | cell viability [1] [%] | cell viability [2] [%] | cell viability [3] [%] | cell viability [4] [%] | cell viability [5] [%] | cell viability [6] [%] | cell viability [7] [%] | cell viability [8] [%] | cell viability [9] [%] | cell viability [10] [%] | cell viability [11] [%] | cell viability [12] [%] | cell viability [13] [%] | cell viability [14] [%] | cell viability [15] [%] | cell viability [16] [%] | cell viability [17] [%] | cell viability [18] [%] | cell viability [19] [%] | cell viability [20] [%] | cell viability [21] [%] | cell viability [22] [%] | cell viability [23] [%] | cell viability [24] [%] | cell viability [25] [%] | cell viability [26] [%] | cell viability [27] [%] | cell viability [28] [%] | cell viability [29] [%] | cell viability [30] [%] | cell viability [31] [%] | cell viability [32] [%] | cell viability [33] [%]
1 | CCCCCCCCCCCC(CC1OC(=O)C1CCCCCC)OC(=O)C(CC(C)C)NC=O (stereo unspecified) | 98.6 | 110 | 110 | 105 | 111 | 107 | 119 | 107 | 105 | 84.2 | 3.42 | 105 | 117 | 114 | 120 | 118 | 114 | 114 | 114 | 103 | 85.8 | 10.6 | 101 | 107 | 103 | 108 | 117 | 112 | 116 | 112 | 99.3 | 87.2 | 7.97
2 | O=C1CSC(=O)N1C(CCc1ccncc1)COc1ccc(-c2cccc([N+](=O)[O-])c2)cc1 (stereo unspecified) | 115 | 119 | 122 | 118 | 118 | 115 | 111 | 111 | 95.7 | 108 | 90.1 | 122 | 134 | 116 | 107 | 114 | 91.3 | 99.1 | 110 | 87.4 | 93.7 | 82.3 | – | – | – | – | – | – | – | – | – | – | –
3 | Cc1ccc(NC(=O)c2ccc(CN3CCN(C)CC3)cc2)cc1Nc1nccc(-c2cccnc2)n1 | 93.8 | 95.7 | 105 | 97.9 | 113 | 103 | 112 | 109 | 110 | 109 | 92.7 | 98.2 | 107 | 101 | 96.5 | 115 | 113 | 114 | 109 | 103 | 105 | 100 | 102 | 107 | 108 | 111 | 109 | 113 | 115 | 104 | 97.6 | 112 | 106
4 | Clc1ccc(C2(c3ccc(-c4cn[nH]c4)cc3)CCNCC2)cc1 | 91.3 | 94.4 | 101 | 96.8 | 101 | 98 | 92.3 | 89.3 | 73.2 | 57.5 | 59.9 | 86.9 | 94.2 | 85.9 | 91 | 89 | 83.1 | 78.8 | 75.4 | 65.9 | 43.1 | 44.1 | 91 | 92.2 | 90.7 | 87.5 | 95 | 93.5 | 91.8 | 78.7 | 68.5 | 49.7 | 49.7
5 | C[C@]\1(CCS\C(=N1)N)C2=CC(=C(F)C=C2F)C3=CN=CN=C3 | 98.2 | 101 | 112 | 103 | 110 | 115 | 115 | 122 | 106 | 15.2 | 2.53 | 99.3 | 103 | 119 | 117 | 113 | 114 | 121 | 113 | 117 | 30.2 | 8.85 | 92.1 | 109 | 104 | 109 | 110 | 108 | 101 | 98.6 | 99.8 | 62 | 13.4
6 | Fc1cc(-c2cccc3ncc(-c4cnn(C5CCNCC5)c4)nc23)cc(F)c1CN1CCOCC1 | 119 | 113 | 122 | 115 | 123 | 118 | 108 | 113 | 68.8 | 57.7 | 28.9 | 122 | 123 | 120 | 118 | 122 | 118 | 118 | 120 | 91.2 | 70.7 | 27.1 | 119 | 122 | 119 | 114 | 110 | 120 | 123 | 101 | 87.2 | 60.1 | 15.1
7 | C#CCN(C)[C@H](C)Cc1ccccc1 | 92.5 | 93.5 | 93.7 | 89.8 | 106 | 93 | 73.2 | 89.5 | 92.7 | 80.1 | 88.3 | 82.9 | 82.3 | 88.9 | 83.7 | 92.2 | 92.7 | 89.3 | 82.8 | 81.5 | 87.9 | 89 | 79.3 | 88.6 | 83.1 | 86.5 | 83.8 | 88.3 | 93.5 | 82 | 80.9 | 80.2 | 79.5
8 | COc1cc2c(Nc3ccc(NC(=O)c4ccccc4)cc3)ncnc2cc1OCCCN1CCOCC1 | 116 | 123 | 122 | 125 | 131 | 133 | 135 | 125 | 45 | 15 | 15.6 | – | – | – | – | – | – | – | – | – | – | – | – | – | – | – | – | – | – | – | – | – | –
9 | CC#C[C@]1(O)CC[C@H]2[C@@H]/3CCC/4=C/C(=O)CCC4=C3[C@H](C[C@]12C)C5=CC=C(C=C5)N(C)C | 101 | 101 | 103 | 105 | 107 | 110 | 107 | 98.7 | 102 | 75.1 | 73.1 | 95.6 | 108 | 105 | 104 | 105 | 93.9 | 106 | 87.4 | 83.4 | 61.2 | 30.8 | 80 | 94 | 92.7 | 98.9 | 102 | 97.6 | 93 | 95.9 | 83 | 51.5 | 39.6
10 | C=C(C)[C@@H]1CC[C@]2(C)CC[C@]3(C)[C@H](CC[C@@H]4[C@@]5(C)CC[C@H](O)C(C)(C)[C@@H]5CC[C@]43C)[C@@H]12 | 108 | 115 | 116 | 113 | 127 | 134 | 128 | 125 | 126 | 126 | 124 | – | – | – | – | – | – | – | – | – | – | – | 104 | 119 | 102 | 115 | 130 | 110 | 128 | 126 | 124 | 119 | 126
11 | CC/1=C/N([C@@H]2C[C@@H](O)[C@H](CO)O2)C(=O)NC1=O | 93.7 | 89.4 | 96.2 | 85.5 | 78.7 | 83.4 | 91.7 | 86.1 | 73.7 | 74.2 | 8.14 | 75.2 | 86.7 | 83.5 | 85.8 | 65.9 | 80.7 | 90.2 | 76 | 62.3 | 69.5 | 6.95 | 76.3 | 84.6 | 79.8 | 75.9 | 61.6 | 73.3 | 81.8 | 81 | 61 | 64.3 | 12.2
12 | O=[N+]([O-])c1cn2c(n1)OC[C@@H](OCc1ccc(OC(F)(F)F)cc1)C2 | 124 | 126 | 121 | 120 | 120 | 111 | 113 | 111 | 112 | 118 | 110 | 124 | 125 | 138 | 141 | 131 | 132 | 127 | 118 | 105 | 111 | 121 | 120 | 116 | 111 | 126 | 115 | 113 | 113 | 100 | 101 | 109 | 107
13 | COCCOC(=O)C/1=C(C)/NC/2=C(C1C3=CC=CC(=C3)O)/C(=O)CC(C2)C4=C(OC)C=CC=C4 (stereo unspecified) | 94.3 | 97.9 | 102 | 105 | 110 | 100 | 106 | 105 | 91.5 | 86.7 | 26.8 | 103 | 102 | 104 | 112 | 118 | 110 | 113 | 101 | 96.3 | 89.5 | 54.1 | 94.8 | 97.9 | 91.7 | 104 | 101 | 104 | 101 | 94.7 | 87.6 | 88.1 | 46.8
14 | COc1cc2nccc(Oc3ccc(NC(=O)C4(C(=O)Nc5ccc(F)cc5)CC4)cc3)c2cc1OC | 114 | 91.5 | 122 | 111 | 115 | 111 | 118 | 113 | 96.3 | 71.7 | 34 | 112 | 112 | 116 | 117 | 119 | 116 | 112 | 114 | 106 | 82.5 | 19.7 | 106 | 118 | 120 | 121 | 123 | 124 | 113 | 113 | 101 | 60.5 | 28.9
15 | Fc1ccc(C(c2ccc(F)cc2)N2CCN(C/C=C/c3ccccc3)CC2)cc1 | 110 | 121 | 111 | 109 | 109 | 114 | 108 | 108 | 103 | 99.1 | 96.5 | 118 | 112 | 109 | 121 | 116 | 119 | 112 | 107 | 110 | 106 | 104 | 113 | 104 | 121 | 109 | 102 | 110 | 114 | 106 | 104 | 98 | 95.2
